Laboratory results reported in patent US4680382A, “Analogues of actinomycin D” (priority 1986, dated 1987).

Tests used:
rat hepatic microsomes = assay: Stimulation of adrenochrome formation (superoxide generation) in rat hepatic microsomal incubations; conditions: no SOD; for adrenochrome formation: 480 nm, 37° C., no more than 100 μM drug, basal 2.11 ± 0.11
[1] = target: T1, NADPH cytochrome P-450 reductase (rat liver microsomes) (Rattus norvegicus, UniProt P00388); assay: Stimulation of NADPH oxidation in rat hepatic microsomal incubations; conditions: for NADPH oxid: 340 nm, 37° C., phenobarbital induced microsomes, mean ± standard error of triplicate, basal 9.11 ± 0.30; for percentage stimulation of NADPH oxidation over basal rate: (drug-stimulated rate - basal rate)/basal rate × 100
T1 sequence (P00388 1-678): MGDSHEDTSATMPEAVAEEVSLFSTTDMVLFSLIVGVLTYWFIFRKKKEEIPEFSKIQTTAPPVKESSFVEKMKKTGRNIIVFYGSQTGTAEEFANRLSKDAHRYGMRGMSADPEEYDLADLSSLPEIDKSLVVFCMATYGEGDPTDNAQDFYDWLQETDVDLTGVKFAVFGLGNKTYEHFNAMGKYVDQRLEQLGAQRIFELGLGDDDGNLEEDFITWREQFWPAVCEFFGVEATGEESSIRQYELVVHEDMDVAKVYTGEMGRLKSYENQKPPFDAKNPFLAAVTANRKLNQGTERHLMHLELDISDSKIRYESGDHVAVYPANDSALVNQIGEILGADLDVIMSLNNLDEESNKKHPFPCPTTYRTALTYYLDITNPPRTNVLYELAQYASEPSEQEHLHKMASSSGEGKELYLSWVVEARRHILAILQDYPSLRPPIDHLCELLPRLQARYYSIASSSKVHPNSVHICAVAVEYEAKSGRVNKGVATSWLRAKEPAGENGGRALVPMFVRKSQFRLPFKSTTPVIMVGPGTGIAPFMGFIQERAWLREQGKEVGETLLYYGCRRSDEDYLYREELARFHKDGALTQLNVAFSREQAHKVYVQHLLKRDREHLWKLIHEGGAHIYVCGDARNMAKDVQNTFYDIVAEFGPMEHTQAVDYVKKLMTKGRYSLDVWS

liver microsomes = assay: EPR detection of free-radical intermediates with liver microsomes and NADPH (anaerobic); assay type: biochemical; conditions: NADPH, potassium phosphate buffer
Method: No free-radical intermediates were detected in the absence of enzyme or substrates.
Melting points are determined on a Thomas-Hoover melting point apparatus at a heating rate of 2° C./min. Thin-layer chromatography was performed on silica gel plates (Brinkmann Instrument Inc.). Solvent systems were (A) EtOAc-acetone (4:1), (B) CHCl3 -MeOH (9:1) and (C) Cifferri, the organic phase of the mixture EtOAc-MeOH-H2 O (20:1:20). High-performance liquid chromatography was carried out on a Varian Model 5020 gradient liquid chromatograph equipped with a CD-111L chromatography data system and fitted with a Varian reversed-phase C18 column with the following solvent systems: I, CH3 CN-5 mM NH4 OAc buffer, pH 6.4 (68:32 isocratic), flow rate 1.5 mL/min; II, 65-95% water-methanol gradient for 70 min, 1 mL/min; III, 10-90% H2 O-MeOH gradient for 120 min, 1 mL/min, with UV-visible variable- and fixed-wavelength dual detectors at 254, 440, 470 and 520 nm. IR spectra were obtained on a Perkin-Elmer Model 237 Infra Cord with KBr micropellets or in chloroform solutions. UV-visible spectra were obtained on a Gilford 250 spectrophorometer, which, with the addition of a base-line reference compensator (Analog Multiplexer 5053) and thermoprogrammer, auto four cell programmer and thermoelectric cell holder 2577, were used to obtain thermal denaturation curves. Specific rotation values were determined in chloroform solutions with a Cary 60 spectropolarimeter. NMR spectra were obtained in a JEOL FQ-90 MHz spectrometer equipped with Fourier transform. EPR spectra analyses were recorded in a Varian E-9 EPR spectrometer. All elemental analyses were within ±0.4%.

P388/ADR = assay: In vivo activity against P388/adriamycin-resistant leukemia; design: species or system BDF1 mice; conditions: for P388/ADR optimal dose: ip, days 1, 5 and 9
Method: (§1) ^a Male BDF1 mice inoculated ip: 10^6 cells inoculum, day 0.
(§2) Drugs administered in 10% dimethyl sulfoxidesaline on days 1, 5 and 9. %
(§3) ILS = percent increase in life span. Fractions in parentheses = tumorfree
(§4) survivors/total on day 60. P388/S (adriamycin sensitive) and P388/ADR
(§5) (adriamycin resistant) tumors were evaluated in the same experiment with […]

P388/S = assay: In vivo activity against P388/S (adriamycin sensitive) leukemia, Table VII; design: species or system BDF1 mice; conditions: for P388/S % ILS / P388/S tumor-free survivors/total on day 60: at optimal dose; for P388/S optimal dose: ip, days 1, 5 and 9
Method: as §1, §2, §3, §4, §5

Compound	adrenochrome formation (rat hepatic microsomes)	percentage stimulation of adrenochrome formation over basal rate (rat hepatic microsomes)	NADPH oxid [1]	percentage stimulation of NADPH oxidation over basal rate [1] [%]	free-radical intermediate detected by EPR (liver microsomes)	P388/ADR % ILS (P388/ADR; at optimal dose) [%]	P388/ADR optimal dose (P388/ADR) [mg/kg]	P388/S % ILS (P388/S) [%]	P388/S tumor-free survivors/total on day 60 (P388/S)	P388/S optimal dose (P388/S) [mg/kg]	P388/ADR tumor-free survivors/total on day 60 (P388/ADR; at optimal dose)
CCN(CC)C(=O)c1c2nc3c(C(=O)N(CC)CC)ccc(C)c3oc-2c(C)c(=O)c1N [1b]	2.13 ± 0.19 nmol min^-1 (mg of protein)^-1	+1%	8.9 ± 0.90 nmol min^-1 (mg of protein)^-1	-2							
CCN(CC)C(=O)c1c2nc3c(C(=O)N(CC)CC)cc(O)c(C)c3oc-2c(C)c(=O)c1N [2b]	2.13 ± 0.19 nmol min^-1 (mg of protein)^-1	+1%	8.9 ± 0.90 nmol min^-1 (mg of protein)^-1	-2							
CCN(CC)C(=O)c1c2nc3c(C(=O)N(CC)CC)c(N)c(O)c(C)c3oc-2c(C)c(=O)c1N [4b, 2,8-Diamino-1,9-bis(diethylcarbamoyl)-7-hydroxy-4,6-dimethyl-3-H-phenoxazine-3-one]	2.13 ± 0.19 nmol min^-1 (mg of protein)^-1	+1%	8.9 ± 0.90 nmol min^-1 (mg of protein)^-1	-2	no free-radical intermediates were detectable						
CCN(CC)C(=O)c1c2nc3c(C(=O)N(CC)CC)c4nc(C)oc4c(C)c3oc-2c(C)c(=O)c1N [7b]	2.13 ± 0.19 nmol min^-1 (mg of protein)^-1	+1%	8.9 ± 0.90 nmol min^-1 (mg of protein)^-1	-2	no free-radical intermediates were detectable						
CCN(CC)C(=O)c1cc(=O)c(C)c2oc3c(C)c4oc(C)nc4c(C(=O)N(CC)CC)c3nc1-2 [9b]	2.13 ± 0.19 nmol min^-1 (mg of protein)^-1	+1%	8.9 ± 0.90 nmol min^-1 (mg of protein)^-1	-2							
COc1cccc2c1C(=O)c1c(O)c3c(c(O)c1C2=O)C[C@@](O)(C(=O)CO)C[C@@H]3O[C@H]1C[C@H](N)[C@H](O)[C@H](C)O1 [adriamycin, reference compound]						33	3.5	97	1/8	3.0	
CO[C@@]12[C@H](COC(N)=O)C3=C(C(=O)C(C)=C(N)C3=O)N1C[C@@H]1N[C@@H]12 [mitomycin C, reference compound]						400	3.0	136	1/8	3.0	5/8
